Patent publication US12564638B2 (SHANGHAITECH UNIVERSITY, priority 2019, dated 2026)
Like-named read-outs stand apart in the source and are kept apart here.

Assays:
[1] = test system: HCC827 cells (EGFR Exon19 del, non-small cell lung cancer cells); assay: Cell viability assay (WST/CCK8), HCC827 cells; type: cell-based; conditions: Homo sapiens, HCC827, 72 h, HCC827 (Exon19 Del), 72 hours, read-out: IC50 (half inhibitory concentration)
In short: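 Cells seeded at 3 000/well in RPMI1640 complete medium, dosed next day with compounds (top 10 μM, 3-fold, 10 points) for 72 h. Viability read with WST (CCK8) reagent; DMSO as negative control, EGFR TKIs as positive controls; IC50 determined.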

[2] = test system: PC9 cells (EGFR Exon 19 del, non-small cell lung cancer cells); assay: Cell viability assay (WST/CCK8), PC9 cells; type: cell-based; conditions: Homo sapiens, PC-9, PC9 (Exon19 Del), 72 hours, read-out: IC50 (half inhibitory concentration)
From the text: The cell lines with abnormal EGFR expression used are as follows: • HCC827 cells (EGFR Exon19 del, non-small cell lung cancer cells); • PC9 cells (EGFR Exon 19 del, non-small cell lung cancer cells); • PC9BracA1 (EGFR Exon 19 del+T790M, non-small cell lung cancer cells) • H1975 (EGFR Exon T790M+L858R mutation, non-small cell lung cancer cell line) • BT474 cells (HER2 positive breast cancer cells)
All of the half inhibitory concentrations (IC50) of these compounds of the present invention were determined with WST reagent from Fuyuan Biotec Company. The specific experiment procedures are as follows: Cancer cells were planted in 96-well-plate at the density of 3 000 cells per well with 100 μL RPMI1640 completed culture medium. In the next day, compounds with indicated concentrations were added to the cells, DMSO was used as the negative control and the EGFR TKIs were used to treat cells as the positive groups. After 72 hours drug treatment, cell viability was measured by using the WST reagent following the instructions.
The cells were treated with the gradient concentration of these compounds (the maximum concentration: 10 μM; 3-fold dilution ratio, 10 concentration gradients) for 72 hours and then incubated with the WST (CCK8) reagent to determine the cell viability.

[3] = Table 6, canertinib-based compounds, WST

Row | SMILES | IC50 ([1]; WST (CCK8)) [nM] | IC50 ([2]; WST (CCK8)) [nM] | IC50 [1, 3] [nM] | IC50 [2, 3] [nM]
1 | COc1cc2ncnc(Nc3ccc(F)c(Cl)c3)c2cc1NC(=O)/C=C/CN1CCN(C(=O)CCOCCOCCC(=O)N[C@H](C(=O)N2C[C@H](O)C[C@H]2C(=O)NCc2ccc(-c3scnc3C)cc2)C(C)(C)C)CC1 [SIAIS249045, (2S,4R)-1-((S)-2-(3-(2-(3-(4-((E)-4-((4-((3-chloro-4-fluorophenyl)amino)-7-methoxyquinazolin-6-yl)amino)-4-oxobut-2-en-1-yl)piperazin-1-yl)-3-oxopropoxy)ethoxy)propanamido)-3,3-dimethylbutanoyl)-4-hydroxy-N-(4-(4-methylthiazol-5-yl)benzyl)pyrrolidine-2-carboxamide] | 41.9 | 691 |  | 
2 | COc1cc2ncnc(Nc3ccc(F)c(Cl)c3)c2cc1NC(=O)/C=C/CN1CCN(C(=O)CCCCCNc2cccc3c2CN(C2CCC(=O)NC2=O)C3=O)CC1 (centres unmarked) [SIAIS249059, (E)-N-(4-((3-chloro-4-fluorophenyl)amino)-7-methoxyquinazolin-6-yl)-4-(4-(6-((2-(2,6-dioxopiperidin-3-yl)-1-oxoisoindolin-4-yl)amino)hexanoyl)piperazin-1-yl)but-2-enamide] | 11.1 | 1.2 |  | 
3 | COc1cc2ncnc(Nc3ccc(F)c(Cl)c3)c2cc1NC(=O)/C=C/CN1CCC(N2CCN(C(=O)CCCCCCNc3cccc4c3CN(C3CCC(=O)NC3=O)C4=O)CC2)CC1 (centres unmarked) [SIAIS337036, (E)-N-(4-((3-chloro-4-fluorophenyl)amino)-7-methoxyquinazolin-6-yl)-4-(4-(4-(7-((2-(2,6-dioxopiperidin-3-yl)-1-oxoisoindolin-4-yl)amino)heptanoyl)piperazin-1-yl)piperidin-1-yl)but-2-enamide] | 0.7 | 1.3 |  | 
4 | COc1cc2ncnc(Nc3ccc(F)c(Cl)c3)c2cc1NC(=O)/C=C/CN1CCC(N2CCN(C(=O)CCCCOc3cccc4c3CN(C3CCC(=O)NC3=O)C4=O)CC2)CC1 (centres unmarked) [SIAIS337026, (E)-N-(4-((3-chloro-4-fluorophenyl)amino)-7-methoxyquinazolin-6-yl)-4-(4-(4-(5-((2-(2,6-dioxopiperidin-3-yl)-1-oxoisoindolin-4-yl)oxy)pentanoyl)piperazin-1-yl)piperidin-1-yl)but-2-enamide] | 0.5 | 8.6 |  | 
5 | COc1cc2ncnc(Nc3ccc(F)c(Cl)c3)c2cc1NC(=O)/C=C/CN1CCC(N2CCN(C(=O)CCCCCCOc3cccc4c3CN(C3CCC(=O)NC3=O)C4=O)CC2)CC1 (centres unmarked) [SIAIS337028, (E)-N-(4-((3-chloro-4-fluorophenyl)amino)-7-methoxyquinazolin-6-yl)-4-(4-(4-(7-((2-(2,6-dioxopiperidin-3-yl)-1-oxoisoindolin-4-yl)oxy)heptanoyl)piperazin-1-yl)piperidin-1-yl)but-2-enamide] | 0.9 | 20.3 |  | 
6 | COc1cc2ncnc(Nc3ccc(F)c(Cl)c3)c2cc1NC(=O)/C=C/CN1CCN(C(=O)CCSc2cccc3c2CN(C2CCC(=O)NC2=O)C3=O)CC1 (centres unmarked) [SIAIS219186, (E)-N-(4-((3-chloro-4-fluorophenyl)amino)-7-methoxyquinazolin-6-yl)-4-(4-(3-((2-(2,6-dioxopiperidin-3-yl)-1-oxoisoindolin-4-yl)thio)propanoyl)piperazin-1-yl)but-2-enamide] | 6 | 21.7 |  | 
7 | C=CC(=O)Nc1cc2c(Nc3ccc(F)c(Cl)c3)ncnc2cc1OCCCN1CCN(C(=O)CCC(=O)NCCNc2cccc3c2C(=O)N(C2CCC(=O)NC2=O)C3=O)CC1 (centres unmarked) [SIAIS249100, 4-(4-(3-((6-acrylamido-4-((3-chloro-4-fluorophenyl)amino)quinazolin-7-yl)oxy)propyl)piperazin-1-yl)-N-(2-((2-(2,6-dioxopiperidin-3-yl)-1,3-dioxoisoindolin-4-yl)amino)ethyl)-4-oxobutanamide] |  |  | 41 | 88.5
8 | COc1cc2ncnc(Nc3ccc(F)c(Cl)c3)c2cc1NC(=O)/C=C/CN1CCN(C(=O)CNc2cccc3c2CN(C2CCC(=O)NC2=O)C3=O)CC1 (centres unmarked) [SIAIS249056, (E)-N-(4-((3-chloro-4-fluorophenyl)amino)-7-methoxyquinazolin-6-yl)-4-(4-(2-((2-(2,6-dioxopiperidin-3-yl)-1-oxoisoindolin-4-yl)amino)acetyl)piperazin-1-yl)but-2-enamide] | 7.3 | 4 |  | 
9 | C=CC(=O)Nc1cc2c(Nc3ccc(F)c(Cl)c3)ncnc2cc1OCCCN1CCN(C(=O)CCOCCOCCOCCOCCC(=O)N[C@H](C(=O)N2C[C@H](O)C[C@H]2C(=O)NCc2ccc(-c3scnc3C)cc2)C(C)(C)C)CC1 [SIAIS262130, (2S,4R)-1-((S)-19-(4-(3-((6-acrylamido-4-((3-chloro-4-fluorophenyl)amino)quinazolin-7-yl)oxy)propyl)piperazin-1-yl)-2-(tert-butyl)-4,19-dioxo-7,10,13,16-tetraoxa-3-azanonadecanoyl)-4-hydroxy-N-(4-(4-methylthiazol-5-yl)benzyl)pyrrolidine-2-carboxamide] |  |  | 47.2 | 179
10 | COc1cc2ncnc(Nc3ccc(F)c(Cl)c3)c2cc1NC(=O)/C=C/CN1CCN(C(=O)CCCSc2cccc3c2C(=O)N(C2CCC(=O)NC2=O)C3=O)CC1 (centres unmarked) [SIAIS249036, (E)-N-(4-((3-chloro-4-fluorophenyl)amino)-7-methoxyquinazolin-6-yl)-4-(4-(4-((2-(2,6-dioxopiperidin-3-yl)-1,3-dioxoisoindolin-4-yl)thio)butanoyl)piperazin-1-yl)but-2-enamide] | 8.1 | 47.7 |  | 
11 | COc1cc2ncnc(Nc3ccc(F)c(Cl)c3)c2cc1NC(=O)/C=C/CN1CCC(N2CCN(C(=O)CCCCCOc3cccc4c3CN(C3CCC(=O)NC3=O)C4=O)CC2)CC1 (centres unmarked) [SIAIS337027, (E)-N-(4-((3-chloro-4-fluorophenyl)amino)-7-methoxyquinazolin-6-yl)-4-(4-(4-(6-((2-(2,6-dioxopiperidin-3-yl)-1-oxoisoindolin-4-yl)oxy)hexanoyl)piperazin-1-yl)piperidin-1-yl)but-2-enamide] | 1.1 | 13.2 |  | 
12 | COc1cc2ncnc(Nc3ccc(F)c(Cl)c3)c2cc1NC(=O)/C=C/CN1CCC(N2CCN(C(=O)CCN3CCN(CCC(=O)N[C@H](C(=O)N4C[C@H](O)C[C@H]4C(=O)NCc4ccc(-c5scnc5C)cc4)C(C)(C)C)CC3)CC2)CC1 [SIAIS249105, (2S,4R)-1-((S)-2-(3-(4-(3-(4-(1-((E)-4-((4-((3-chloro-4-fluorophenyl)amino)-7-methoxyquinazolin-6-yl)amino)-4-oxobut-2-en-1-yl)piperidin-4-yl)piperazin-1-yl)-3-oxopropyl)piperazin-1-yl)propanamido)-3,3-dimethylbutanoyl)-4-hydroxy-N-(4-(4-methylthiazol-5-yl)benzyl)pyrrolidine-2-carboxamide] | 54.3 | 60.5 |  | 
13 | COc1cc2ncnc(Nc3ccc(F)c(Cl)c3)c2cc1NC(=O)/C=C/CN1CCN(C(=O)CCCCSc2cccc3c2CN(C2CCC(=O)NC2=O)C3=O)CC1 (centres unmarked) [SIAIS219188, (E)-N-(4-((3-chloro-4-fluorophenyl)amino)-7-methoxyquinazolin-6-yl)-4-(4-(5-((2-(2,6-dioxopiperidin-3-yl)-1-oxoisoindolin-4-yl)thio)pentanoyl)piperazin-1-yl)but-2-enamide] | 3.1 | 25.1 |  | 
14 | COc1cc2ncnc(Nc3ccc(F)c(Cl)c3)c2cc1NC(=O)/C=C/CN1CCN(C(=O)CCSc2cccc3c2C(=O)N(C2CCC(=O)NC2=O)C3=O)CC1 (centres unmarked) [SIAIS249035, (E)-N-(4-((3-chloro-4-fluorophenyl)amino)-7-methoxyquinazolin-6-yl)-4-(4-(3-((2-(2,6-dioxopiperidin-3-yl)-1,3-dioxoisoindolin-4-yl)thio)propanoyl)piperazin-1-yl)but-2-enamide] | 10 | 56.5 |  | 
15 | COc1cc2ncnc(Nc3ccc(F)c(Cl)c3)c2cc1NC(=O)/C=C/CN1CCN(C(=O)CCOCCOCCOCCOCCNc2cccc3c2C(=O)N(C2CCC(=O)NC2=O)C3=O)CC1 (centres unmarked) [SIAIS262014, (E)-N-(4-((3-chloro-4-fluorophenyl)amino)-7-methoxyquinazolin-6-yl)-4-(4-(1-((2-(2,6-dioxopiperidin-3-yl)-1,3-dioxoisoindolin-4-yl)amino)-3,6,9,12-tetraoxapentadecan-15-oyl)piperazin-1-yl)but-2-enamide] | 39.5 | 128 |  | 
16 | COc1cc2ncnc(Nc3ccc(F)c(Cl)c3)c2cc1NC(=O)/C=C/CN1CCC(N2CCN(C(=O)CCCCCCCCCCSc3cccc4c3CN(C3CCC(=O)NC3=O)C4=O)CC2)CC1 (centres unmarked) [SIAIS337038, (E)-N-(4-((3-chloro-4-fluorophenyl)amino)-7-methoxyquinazolin-6-yl)-4-(4-(4-(11-((2-(2,6-dioxopiperidin-3-yl)-1-oxoisoindolin-4-yl)thio)undecanoyl)piperazin-1-yl)piperidin-1-yl)but-2-enamide] | 0.3 | 1.6 |  | 
